Experimental data taken from paper PMC12119672, “Development and evaluation of [^11C]DPA-813 and [^18F]DPA-814: novel TSPO PET tracers insensitive to human single nucleotide polymorphism rs6971” (European Journal of Nuclear Medicine and Molecular Imaging, 2025).
“And” between values parts separate entries of the source, which are not always exact repeats. Equal values may be shown once.

Experiments:
rat TSPO = biological target: T1, rat TSPO (Rattus norvegicus, UniProt P16257); assay: Competitive binding to rat TSPO vs [3H]PK 11195 (Eurofins assay #226700, rat heart membranes); conditions: vs DPA-713 / DPA-714
T1 construct: Heart of male Wistar derived rats weighing 175 ± 25 g are used to prepare peripheral benzodiazepine membrane receptors [TSPO]; tissue Eurofins Panlabs Discovery Services assay #226700; host or cells: rat heart (male Wistar derived)
Description: Binding affinities (Ki) to wild-type (WT) and A147T human TSPO were assessed using a previously published method. HEK-293T cells were stably transfected with WT and A147T TSPO. Membranes were isolated from each cell line using an Ultra-Turrax hand-held homogeniser. These cells have been previously validated as an in vitro model for low- and high-affinity TSPO binding. […] Non-specific binding was determined using a saturating concentration (1 µM) of non-tritiated PK 11195. This non-specific binding contributed less than 10% of total binding. Reactions were halted by filtering through a 96-well glass-fibre filter plate (Millipore), followed by eight washes with ice-cold 50 mM Tris HCl. Microscint 0 was added to the plate and resultant radioactivity-related photons were collected by a Microbeta 2450 (PerkinElmer). Ki values were fit to a competition binding curve fit on non-specific binding-corrected data using GraphPad Prism 10.0 (GraphPad). Results are presented as mean ± standard error of the mean (SEM) from at least three independent experiments. Binding affinities (Ki) to rat TSPO were measured in duplicate by Eurofins Panlabs Discovery Services (assay #226700) (Supplementary Fig. 12). Single-dose (10 µM) off-target in vitro screening was performed in duplicate by Eurofins Panlabs Discovery Services (Supplementary Table 5).
Supplementary Figure 12 Dose-response curves and binding affinities of DPA-813 and DPA-814 showing competitive binding to rat TSPO vs [^3H]PK 11195. Method from Eurofins: Heart of male Wistar derived rats weighing 175 ± 25 g are used to prepare peripheral benzodiazepine membrane receptors [TSPO] in modified Tris-HCl buffer pH 7.5. A 0.25 mg aliquot is incubated with 0.3 nM [^3H]PK 11195 for 15 minutes at 25 °C. Non-specific binding is estimated in the presence of 100 μM Dipyridamole. Membranes are filtered and washed, the filters are then counted to determine [^3H]PK 11195 specifically bound.

[1] = Ex vivo metabolite analysis (plasma and brain) in wild-type rats; set-up: species or system rat; conditions: i.v.
Description: Metabolite analysis was conducted following the method outlined in a previous study. Wistar/RccHan (WIST) rats (Inotiv, the Netherlands) received intravenous injections of either [^11C]DPA-813 (30–50 MBq) or [^18F]DPA-814 (20–30 MBq). Rats were euthanized at 5, 15, and 45 min post-injection (n = 4 per time point). Plasma was separated from blood then processed through a C18 Sep-Pak (Waters, Milford, MA, USA). After washing with 3 mL of water to isolate the polar fraction, the non-polar fraction was eluted using 2 mL of methanol and 1 mL of water and subsequently analyzed by HPLC. The brain tissue was collected and homogenized in a mixture of MeCN and H2O (50/50, 4 mL) before centrifugation (5 min, 4000 rpm, 20 °C, Hettich Universal 32). The obtained supernatant was separated from the precipitate and analyzed via HPLC. Analytical HPLC was performed using a Dionex UltiMate 3000 HPLC system equipped with Chromeleon software (version 6.8), utilizing a Gemini C18 5-µm (10 × 250 mm) column (Phenomenex, Torrance, CA, USA). All fractions were assessed for radioactivity using a Wizard Gamma counter 1470 or 2480 (Wallac/PerkinElmer, Waltham, MA, USA).

[2] = test system: EAE rat model (spinal cord); assay: PET imaging in the EAE rat model; type: in vivo; conditions: dynamic PET 60 min, peak of clinical symptoms
TSPO in human MS tissues = assay: Autoradiography on genotyped human MS brain tissue (HAB, MAB, LAB); type: binding
Excerpt: Brain tissues from MS patients (n = 7) were used in this study and were obtained from the MS centre of the Amsterdam University Medical Centers (AUMC). For some patient material, several brain tissues were available. The MS centre received permission from the Ethical Committee of the AUMC (Amsterdam, The Netherlands) to perform autopsies for tissue use and access to medical records for research purposes. All patients and controls, or their next of kin, had given informed consent for autopsy and use of brain tissue for research purposes.
TSPO rs6971 SNP was determined with a Taqman assay (C_2512465_20, ThermoFisher Scientific, The Netherlands). DNA was isolated from human MS brain tissue cryosections using a QIAmp mini kit from Qiagen according to the manufacturer’s recommendation. The concentration of the isolated DNA was determined on a nanodrop (NanoVue Plus, Biochrom). DNA concentration ranged from 45 to 246 µg/mL. QPCR was performed on a QuantStudio (Applied Biosystems, The Netherlands). Synthetic DNA (300 bp) for the two TSPO SNP alleles, rs6971-A, and rs6971-G, was used as a control for the Taqman assay. DNA samples were diluted 1/100 in milliQ water, and 4.5 µL was used for the QPCR. Control DNA sequences were reconstituted in 10 ng/mL in milliQ water. The final QPCR solution contained 5 µL TaqPath proAmp master mix (ThermoFisher Scientific, The Netherlands), 0.5 µL Taqman SNP, and 4.5 µL DNA. Results of the Taqman assay are summarised in Supplementary Tables 4 and Supplementary Fig. 2.
Human MS tissue cryosections (20 μm) were mounted on glass slides, air-dried, and stored at − 80 °C until needed. Prior to use, the sections were washed three times in PBS for 5 min each, then dried under an airflow. […] For blocking experiments, tissue sections were co-incubated with PK 11195 (10 µM) and the tracer. After incubation, sections were washed for 90 s three times each in ice-cold PBS and then dipped in deionized water twice. The sections were air-dried and exposed to a phosphor screen BAS-IP SR 2025 (General Electric, Eindhoven, The Netherlands). Phosphor screens were subsequently imaged using a Typhoon FLA 7000 imager (General Electric, Eindhoven, The Netherlands), and signal intensity was quantified using ImageLab software (BioRad, Lunteren, The Netherlands).

[3] = Ex vivo biodistribution in wild-type rats; set-up: species or system rat; conditions: i.v.
Description: Wistar/RccHan (WIST) rats from Inotiv, the Netherlands, received intravenous injections via a tail vein catheter of either [^11C]DPA-813 (30–50 MBq) or [^18F]DPA-814 (20–30 MBq). The rats were euthanized at 5, 15, and 45 min post-injection (n = 4 per time point). Blood, heart, lungs, liver, spleen, kidney, urine, bone, brain, duodenum, small intestine, skin, and muscle were collected, weighed, and their radioactivity measured using a Wizard Gamma counter 1470 or 2480 (Wallac/PerkinElmer, Waltham, MA, USA). Entire organs were collected, except for larger organs like the liver and lungs, where only a portion was dissected. The radioactivity uptake in each organ was expressed as the percentage of the injected dose per gram of tissue (%ID/g).

higher affinity to rat TSPO compared to the parent compound (rat TSPO): 35 fold
Brain, Parent (intact tracer) ([1]; 5 min post-injection): 99.5 ± 0.2%
Plasma, Parent (Intact tracer) ([1]; 5 min post-injection): 88.1 ± 8.5%
Brain, Parent (intact tracer) ([1]; 15 min post-injection): 99.5 ± 0.3%
Plasma, Parent (Intact tracer) ([1]; 15 min post-injection): 89.4 ± 0.9%
Brain, Parent (intact tracer) ([1]; 45 min post-injection): 99.3 ± 0.3%
Plasma, Parent (Intact tracer) ([1]; 45 min post-injection): 79.1 ± 6.6% and 79%
ratio of the binding quantifications [18F]DPA-814/[18F]DPA-714 (TSPO in human MS tissues; HAB human MS tissue): 0.9 ± 0.1
ratio of the binding quantifications [18F]DPA-814/[18F]DPA-714 (TSPO in human MS tissues; LAB human MS tissue): 12.3 and 12
ratio of the binding quantifications [18F]DPA-814/[18F]DPA-714 (TSPO in human MS tissues; MAB human MS tissue): 1.5 ± 0.2
Biodistribution, Blood ([3]; 5 min post-injection): 0.41 ± 0.2 %ID/g
Biodistribution, Bone ([3]; 5 min post-injection): 0.27±0.1 %ID/g
Biodistribution, Brain ([3]; 5 min post-injection): 0.25 ± 0.03 %ID/g
Biodistribution, Duodenum ([3]; 5 min post-injection): 1.44±0.1 %ID/g
Biodistribution, Heart ([3]; 5 min post-injection): 3.31±0.3 %ID/g
Biodistribution, Kidney ([3]; 5 min post-injection): 3.81±0.5 %ID/g
Biodistribution, Liver ([3]; 5 min post-injection): 1.82±0.5 %ID/g
Biodistribution, Lungs ([3]; 5 min post-injection): 21.91±1. %ID/g
Biodistribution, Skin ([3]; 5 min post-injection): 0.09±0.0 %ID/g
Biodistribution, Small intestine ([3]; 5 min post-injection): 0.92±0.1 %ID/g
Biodistribution, Tail ([3]; 5 min post-injection): 6.89±9.8 %ID/g
Biodistribution, Urine ([3]; 5 min post-injection): 0.01±0.0 %ID/g
Biodistribution, muscle ([3]; 5 min post-injection): 0.05±0.0 %ID/g
Biodistribution, spleen ([3]; 5 min post-injection): 3.00±0.6 %ID/g
Biodistribution, Blood ([3]; 15 min post-injection): 0.31±0.1 %ID/g
Biodistribution, Bone ([3]; 15 min post-injection): 0.29±0.1 %ID/g
Biodistribution, Brain ([3]; 15 min post-injection): 0.28±0.0 %ID/g
Biodistribution, Duodenum ([3]; 15 min post-injection): 1.71±0.2 %ID/g
Biodistribution, Heart ([3]; 15 min post-injection): 4.39±0.2 %ID/g
Biodistribution, Kidney ([3]; 15 min post-injection): 4.59±0.6 %ID/g
Biodistribution, Liver ([3]; 15 min post-injection): 2.56 ± 0.2 %ID/g
Biodistribution, Lungs ([3]; 15 min post-injection): 24.43±2. %ID/g
Biodistribution, Skin ([3]; 15 min post-injection): 0.12±0.1 %ID/g
Biodistribution, Small intestine ([3]; 15 min post-injection): 1.26±0.1 %ID/g
Biodistribution, Tail ([3]; 15 min post-injection): 0.70±0.2 %ID/g
Biodistribution, Urine ([3]; 15 min post-injection): 0.01±0.0 %ID/g
Biodistribution, muscle ([3]; 15 min post-injection): 0.07±0.0 %ID/g
Biodistribution, spleen ([3]; 15 min post-injection): 4.85±0.2 %ID/g
Biodistribution, Blood ([3]; 45 min post-injection): 0.15 ± 0.01 %ID/g
Biodistribution, Bone ([3]; 45 min post-injection): 0.22±0.0 %ID/g
Biodistribution, Brain ([3]; 45 min post-injection): 0.20 ± 0.02 %ID/g
Biodistribution, Duodenum ([3]; 45 min post-injection): 1.43±0.1 %ID/g
Biodistribution, Heart ([3]; 45 min post-injection): 4.05±0.3 %ID/g
Biodistribution, Kidney ([3]; 45 min post-injection): 4.10±0.2 %ID/g
Biodistribution, Liver ([3]; 45 min post-injection): 1.97±0.4 %ID/g
Biodistribution, Lungs ([3]; 45 min post-injection): 18.05±3. %ID/g
Biodistribution, Skin ([3]; 45 min post-injection): 0.12±0.0 %ID/g
Biodistribution, Small intestine ([3]; 45 min post-injection): 1.23±0.2 %ID/g
Biodistribution, Tail ([3]; 45 min post-injection): 1.30±0.5 %ID/g
Biodistribution, Urine ([3]; 45 min post-injection): 0.08±0.1 %ID/g
Biodistribution, muscle ([3]; 45 min post-injection): 0.08±0.0 %ID/g
Biodistribution, spleen ([3]; 45 min post-injection): 5.45±1.6 %ID/g
Structure (SMILES): Cc1cc(C)n2nc(-c3ccc(OCC[18F])cc3)c(CC(=O)N(C)c3ccccc3)c2n1 [[^18F]DPA-814]
higher uptake (AUC of time activity curve) in the spinal cord of EAE rats compared to CFA control [2]: 21%
